Experiments:
Format in all cases: in vivo, dog
[1] = test system: total antioxidant capacity (TAC); assay: Serum total antioxidant capacity (TAC), Example 1; conditions: for Change in TAC, post-run minus pre-run: following 15 mile long run at 13 wk, mean ± SEM
Procedure: Blood Analysis: Serum samples were taken at three different times from each dog during the 90 day period. The blood samples were collected as follows: 1.) just prior to scanning each dog for body composition at the beginning of the study, 2.) prior to the long run on the 13th week, and 3.) following the long run on the 13th week. The serum samples were analyzed for Phosphocreatine Kinase and Canine Myoglobin to determine the amount of muscle protein leakage that occurred following the long run and TBARS and Total Antioxidant Capacity (TAC) were determined to evaluate the antioxidant status of each of the test dogs during the exercise program. The final blood sample was taken 24 hr after the long run to obtain maximum protein leakage based on previous similar types of exercise research with human athletes. Biomarkers and Assay Methods: Blood was drawn from each dog using a serum separator tube at three different times during the 90 day period: 1.) just prior to scanning each dog for body composition at the beginning of the study, 2.) prior to the long run on the 13th week, and 3.) following the long run on the 13th week. The final blood sample was taken 24 hr after the long run to obtain maximum protein leakage based on previous similar types of exercise research with human athletes. Each time after the blood was drawn it was allowed to clot before being centrifuged for 15 min at 2000 g at 4° C. Serum was aliquoted into 1.5 mL microcentrifuge tubes and stored at −80° C. until assays were ran following the end of the study. Creatine kinase (CK) and canine myoglobin were measured to determine the amount of muscle protein leakage that occurred following the long run. Thiobarbituric acid reactive substances (TBARS) and total antioxidant capacity (TAC) were measured to evaluate the antioxidant status of each of the test dogs during the exercise program. Serum samples were analyzed for total antioxidant capacity (TAC) and thiobarbituric acid reactive substances (TBARS) using commercially available colorimetric kits supplied by Cayman Chemical Company (Ann Arbor, Mich.) per manufacturer instructions. Serum canine myoglobin levels were determined using a commercially available ELISA supplied by Innovate Research (Novi, Mich.) per manufacturer instructions. Creatine kinase activity was determined colorimetrically using a commercially available kit supplied by BioVision (San Francisco, Calif.).

[2] = test system: total antioxidant capacity (TAC); assay: Serum total antioxidant capacity (TAC), Example 2 part one; conditions: for TAC: serum
Procedure: Twenty-four hours after test dogs ran the last 15 mile endurance run, serum samples were taken to evaluate biomarkers for muscle damage and antioxidant status. Blood samples were taken 1) just prior to the beginning of the study; 2) 1 day prior to running the final 15 mile run on the 14th week; 3) 1 hour immediately following the 15 mile run; and 4) 24 hours following the final 15 mile run. After a blood sample was drawn, it was allowed to clot for 30 minutes at 25° C. before being centrifuged for 15 minutes at 2000 g at 4° C. Serum was aliquoted into 0.65 mL microcentrifuge tubes and stored at −80° C. until being assayed at the end of the study for creatine kinase, canine myoglobin, thiobarbituric acid reactive substances (TBARS), and total antioxidant capacity (TAC) using the commercially available kits described in Example 1.

[3] = test system: Labrador Retrievers; assay: Subjective recovery score (soreness, lameness) after long runs, Example 1; conditions: Ex.1, 250 mg/d; observed 24 hr following each long run; either treatment
Source text: Each test dog wore an Actical activity monitor from Philips Respironics on a collar for the short higher intensity runs and also wore an Actical activity monitor for the weekly longer endurance runs. The activity data was downloaded into spread sheets along with each dogs identity. Twenty four hours after each long run during the 13 wk running program each of the dogs were scored by kennel staff for soreness or any type of lameness The exercise program was decreased in a tapering program during wk 11 and 12 to allow the dogs to rest for the final long run completed on wk 13. Pre-run serum samples from each test dog was taken 24 hr before the last endurance run. The heart rate and basal body temperature was determined for each test dog prior to the last long endurance run. A subjective recovery score was determined 24 hours after endurance run for each test dog once per week. The subjective recovery score (1-5; score of 1 for no soreness or stiffness in limbs and a score of 5 meant major soreness and stiffness) was based on ease of movement and soreness of each dog. The same subjective system was used 6 hr after the long 15 mile run and again at 24 and 48 hr to evaluate the recovery of the dogs as far as soreness and desire to move.

C[N+](C)(C)C[C@H](O)CC(=O)[O-] [L-carnitine]
TAC Least Sq Mean ([1]; Baseline): 0.1066 mM Trolox Equiv
TAC Least Sq Mean ([1]; Baseline, F): 0.1064 mM Trolox Equiv
TAC Least Sq Mean ([1]; Baseline, M): 0.1067 mM Trolox Equiv
TAC, serum, Mean ([1]; Ex.1, 250 mg/d, Baseline, both sexes): 0.107 mM Trolox Equiv
TAC, serum, Mean ([1]; Ex.1, 250 mg/d, Baseline, females): 0.106 mM Trolox Equiv
TAC, serum, Mean ([1]; Ex.1, 250 mg/d, Baseline, males): 0.107 mM Trolox Equiv
TAC, serum, Mean ([1]; Ex.1, 250 mg/d, Post-run, both sexes): 0.087 mM Trolox Equiv
TAC, serum, Mean ([1]; Ex.1, 250 mg/d, Post-run, females): 0.069 mM Trolox Equiv
TAC, serum, Mean ([1]; Ex.1, 250 mg/d, Post-run, males): 0.102 mM Trolox Equiv
TAC, serum, Mean ([1]; Ex.1, 250 mg/d, Pre-run, both sexes): 0.118 mM Trolox Equiv
TAC, serum, Mean ([1]; Ex.1, 250 mg/d, Pre-run, females): 0.106 mM Trolox Equiv
TAC, serum, Mean ([1]; Ex.1, 250 mg/d, Pre-run, males): 0.128 mM Trolox Equiv
Effect on TAC of the test dogs ([1]; Ex.1, 250 mg/d, during the study, vs control): did not have a significant effect
Change in TAC, post-run minus pre-run ([1]; Ex.1, 250 mg/d, both sexes): −0.03 ± 0.01 n = 20 mM Trolox Equiv
Change in TAC, post-run minus pre-run ([1]; Ex.1, 250 mg/d, females): −0.04 ± 0.01 n = 9 mM Trolox Equiv
Change in TAC, post-run minus pre-run ([1]; Ex.1, 250 mg/d, males): −0.03 ± 0.01 n = 11 mM Trolox Equiv
TAC Least Sq Mean ([1]; Post-run): 0.08522 mM Trolox Equiv
TAC Least Sq Mean ([1]; Post-run, F): 0.06866 mM Trolox Equiv
TAC Least Sq Mean ([1]; Post-run, M): 0.1018 mM Trolox Equiv
TAC Least Sq Mean ([1]; Pre-run): 0.1171 mM Trolox Equiv
TAC Least Sq Mean ([1]; Pre-run, F): 0.1063 mM Trolox Equiv
TAC Least Sq Mean ([1]; Pre-run, M): 0.128 mM Trolox Equiv
TAC Least Sq Mean ([1]; Treatment * Sex, F): 0.1064 mM Trolox Equiv
TAC Least Sq Mean ([1]; Treatment * Sex, M): 0.1067 mM Trolox Equiv
TAC Least Sq Mean ([1]; Treatment level, all dogs): 0.1066 mM Trolox Equiv
Total Antioxidant capacity, mixed model Estimate, term Time[Post-run-Pre-run] * Treatment[L-carnitine] ([1]; serum, model term): −0.001428
Total Antioxidant capacity, mixed model Estimate, term Time[Post-run-Pre-run] * Treatment[L-carnitine] * Sex[F] ([1]; serum, model term): −0.001227
Total Antioxidant capacity, mixed model Estimate, term Time[Pre-run-Baseline] * Treatment[L-carnitine] ([1]; serum, model term): −0.00085
Total Antioxidant capacity, mixed model Estimate, term Time[Pre-run-Baseline] * Treatment[L-carnitine] * Sex[F] ([1]; serum, model term): 0.001958
Total Antioxidant capacity, mixed model Estimate, term Treatment[L-carnitine] ([1]; serum, model term): 0.001356
Total Antioxidant capacity, mixed model Estimate, term Treatment[L-carnitine] * Sex[F] ([1]; serum, model term): 0.001671
TAC levels, serum ([2]; Ex.2 part one, 250 mg/d, post-run 24-hr): 0.16 mM Trolox equiv
TAC ([2]; FEMALES, Baseline): 0.15 ± 0.01 mM Trolox Equiv
TAC ([2]; FEMALES, Post-Run 1 Hr): 0.15 ± 0.01 mM Trolox Equiv
TAC ([2]; FEMALES, Post-Run 24 Hr): 0.16 ± 0.01 mM Trolox Equiv
TAC ([2]; FEMALES, Pre-Run): 0.13 ± 0.01 mM Trolox Equiv
TAC ([2]; MALES, Baseline): 0.18 ± 0.01 mM Trolox Equiv
TAC ([2]; MALES, Post-Run 1 Hr): 0.16 ± 0.01 mM Trolox Equiv
TAC ([2]; MALES, Post-Run 24 Hr): 0.16 ± 0.01 mM Trolox Equiv
TAC ([2]; MALES, Pre-Run): 0.15 ± 0.01 mM Trolox Equiv
TAC ([2]; Whole Groups, Baseline): 0.17 ± 0.01 mM Trolox Equiv
TAC ([2]; Whole Groups, Post-Run 1 Hr, Post-Run 1 Hr): 0.15 ± 0.01 mM Trolox Equiv
TAC ([2]; Whole Groups, Post-Run 24 Hr, Post-Run 24 Hr): 0.16 ± 0.01 mM Trolox Equiv
TAC ([2]; Whole Groups, Pre-Run): 0.14 ± 0.01 mM Trolox Equiv
Lameness or soreness after long runs (score 1-5) [3]: no noticeable effects

From US10016382B2, “Method for decreasing skeletal muscle damage and/or oxidative stress in mammals” (LONZA INC., priority 2014, dated 2018)
